The record followed here is patent publication US20100317698A1, “Polysubstituted Pyridinylaminoalkylene- and Pyridinyloxyalkylene-Cyclopropanamine Compounds, a Process for Their Preparation and Pharmaceutical Compositions Containing Them” (LES LABORATOIRES SERVIER, priority 2006, published 2010).

Counter-ions that a name gives are not always drawn.

The target in one data set is T1, type α4β2 central nicotinic receptors (Rattus norvegicus, UniProt P09483+P12390).
T1 construct: from tissue; host or cells: rat brain membranes
T1 sequence (P09483 31-630): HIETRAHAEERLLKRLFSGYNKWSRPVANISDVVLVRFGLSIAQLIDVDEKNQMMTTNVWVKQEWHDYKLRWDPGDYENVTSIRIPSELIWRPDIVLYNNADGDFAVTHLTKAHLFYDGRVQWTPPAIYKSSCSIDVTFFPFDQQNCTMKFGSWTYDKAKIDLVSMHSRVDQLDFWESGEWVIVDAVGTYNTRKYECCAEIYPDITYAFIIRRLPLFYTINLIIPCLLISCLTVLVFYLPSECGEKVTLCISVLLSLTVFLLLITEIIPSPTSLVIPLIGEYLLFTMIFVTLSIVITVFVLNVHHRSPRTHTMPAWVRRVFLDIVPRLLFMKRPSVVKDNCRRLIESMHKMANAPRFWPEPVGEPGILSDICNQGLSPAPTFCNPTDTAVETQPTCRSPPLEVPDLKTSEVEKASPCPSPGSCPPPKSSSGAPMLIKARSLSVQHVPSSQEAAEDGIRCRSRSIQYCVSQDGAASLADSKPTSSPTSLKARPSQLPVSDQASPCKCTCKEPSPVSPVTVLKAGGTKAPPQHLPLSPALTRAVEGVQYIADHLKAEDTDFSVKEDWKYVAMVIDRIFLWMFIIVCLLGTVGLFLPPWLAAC
T1 sequence (P12390 25-500): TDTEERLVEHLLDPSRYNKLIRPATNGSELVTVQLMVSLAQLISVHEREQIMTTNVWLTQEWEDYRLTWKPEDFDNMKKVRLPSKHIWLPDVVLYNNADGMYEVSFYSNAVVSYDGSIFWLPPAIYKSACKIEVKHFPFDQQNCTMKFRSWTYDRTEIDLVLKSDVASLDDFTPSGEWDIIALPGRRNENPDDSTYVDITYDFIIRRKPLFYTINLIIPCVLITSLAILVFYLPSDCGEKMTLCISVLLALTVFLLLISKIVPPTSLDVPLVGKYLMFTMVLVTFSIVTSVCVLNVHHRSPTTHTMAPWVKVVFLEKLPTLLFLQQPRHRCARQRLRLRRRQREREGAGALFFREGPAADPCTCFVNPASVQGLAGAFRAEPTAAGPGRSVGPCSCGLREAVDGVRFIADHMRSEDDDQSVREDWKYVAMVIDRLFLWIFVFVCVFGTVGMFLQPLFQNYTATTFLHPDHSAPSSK
Nature of the data set: Displacement of binding of [3H]-cytisine to type α4β2 nicotinic receptors of rat brain. The note with it: rat brain membranes, read-out: Affinity (Ki, nM) for type α4β2 receptors. The protocol: This study, carried out according to the technique described in Molec. Pharmacol., 1990, 39; 9-12, is aimed at determining the affinity of compounds of the present invention for type […] central nicotinic receptors.
Membranes (250 μg/ml) of rat brain are incubated (2 hours, 20° C.) in the presence of a series of concentrations (0.01-10 μM) of each compound of the present invention (diluted starting from a 10 mM stock solution in DMSO) and [^3H]-cytisine (S.A.: 1184 GBq/mmol: 2 nM) in phosphate buffer (NaH2PO4 20 mM, pH 7.4); final volume: 250 μl. The non-specific binding is determined by incubating membranes in the presence of 10 μM of (−)nicotine. The affinity of the compounds of the present invention for type α4β2 central nicotinic receptors is characterised by determination of the Ki.
Consider `NCC1(COc2cnc(Cl)c(-c3ccc(F)cc3)c2)CC1` [Example 26, [1-({[6-Chloro-5-(4-fluorophenyl)pyridin-3-yl]oxy}methyl)cyclopropyl]methylamine hydrochloride], for which the Ki amounted to 0.3 nM.
As to “[1-({[5-(3,5-Dichlorophenyl)pyridin-3-yl]oxy}methyl)cyclopropyl]methylamine dihydrochloride [Example 52]”, the Ki was found to be 1.4 nM.
As to “[1-({[5-(4-Methoxyphenyl)pyridin-3-yl]oxy}methyl)cyclopropyl]methylamine dihydrochloride [Example 11]”, the Ki was determined as 0.8 nM.
Take “[1-({[5-(4-Nitrophenyl)pyridin-3-yl]oxy}methyl)cyclopropyl]methylamine dihydrochloride [Example 6]”: the inhibitory constant (Ki) was 2.3 nM.
Turning to “[1-({[6-Chloro-5-(3-fluorophenyl)pyridin-3-yl]oxy}methyl)cyclopropyl]methylamine hydrochloride [Example 32]”, the Ki was found to be 0.4 nM.
Take “[1-({[6-Chloro-5-(4-methylphenyl)pyridin-3-yl]oxy}methyl)cyclopropyl]methylamine dihydrochloride [Example 10]”: the Ki is 0.7 nM.

System in another data set: not given
Test: not given
Details: not given
For `CNC1(CNc2cnc(Cl)c(-c3cccnc3)c2)CC1.Cl.Cl.Cl`, the melting point lay within 180 to 185 °C.
The compound `CNC1(CNc2cnc(Cl)c(-c3cccc(C(=O)O)c3)c2)CC1.Cl.Cl` displayed a melting point of 140 to 145 °C.
Regarding `CNC1(CNc2cnc(Cl)c(-c3ccc(C(=O)O)cc3)c2)CC1.Cl.Cl`, the melting point fell in the range of 175 to 182 °C.
In turn, `CNC1(CNc2cnc(Cl)c(-c3ccc(N)cc3)c2)CC1.Cl.Cl` came in with a melting point of 190 to 196 °C.
In the case of `CNC1(CN(C)c2cnc(Cl)c(-c3ccc(C(=O)O)cc3)c2)CC1.Cl.Cl`, the melting point was 138 to 145 °C.
As for `CNC1(CN(C)c2cnc(Cl)c(-c3ccncc3)c2)CC1.Cl.Cl`, the melting point was in the range of 110 to 120 °C.
`CNC1(CNc2cnc(C)c(-c3ccc(C(=O)O)cc3)c2)CC1.Cl.Cl` yielded a melting point of 241 to 245 °C.
Turning to `CNC1(CNc2cnc(C)c(-c3ccncc3)c2)CC1.Cl.Cl.Cl`, the melting point lay within 240 to 248 °C.
Turning to `CNC1(CNc2cnc(C)c(-c3ccc(N)cc3)c2)CC1.Cl.Cl.Cl`, the melting point lay within 190 to 200 °C.
In turn, `CNC1(CN(C)c2cnc(C)c(-c3ccncc3)c2)CC1.Cl.Cl.Cl` had a melting point of 182 to 187 °C.
On the same count and under the same terms, with `CNC1(CN(C)c2cnc(C)c(-c3ccc(N)cc3)c2)CC1.Cl.Cl.Cl` the figure was 235 to 240 °C; with `Cl.NCC1(COc2cnc(Cl)c(-c3ccc([N+](=O)[O-])cc3)c2)CC1`, 145 to 150 °C; with `CNC1(COc2cnc(Cl)c(-c3ccc(CO)cc3)c2)CC1.Cl.Cl`, 142 to 146 °C.
In the case of `Cc1ncc(OCC2(CN)CC2)cc1-c1ccc(Cl)cc1.Cl.Cl`, the melting point lay within 194 to 199 °C.
With `Cc1ncc(OCC2(CN)CC2)cc1-c1cccc(Cl)c1.Cl.Cl`, the melting point fell in the range of 223 to 227 °C.
Compound `CNC1(COc2cnc(C)c(-c3cccc(C#N)c3)c2)CC1.Cl.Cl` had a melting point of 238 to 242 °C.
On to `CNC1(COc2cnc(C)c(-c3ccc(C#N)cc3)c2)CC1.Cl.Cl`, for which the melting point lay within 220 to 224 °C.
For the compound `CNC1(COc2cncc(-c3cccc(C#N)c3)c2)CC1.Cl.Cl`, the melting point fell in the range of 110 to 120 °C.
Regarding `Cl.NCC1(COc2cnc(F)c(-c3ccc(Cl)cc3)c2)CC1`, the melting point is 55 to 60 °C.
Take `Cl.NCC1(COc2cnc(F)c(-c3cccc(Cl)c3)c2)CC1`: the melting point fell in the range of 126 to 130 °C.
The same measure, in the same setting: with `CNC1(COc2cnc(F)c(-c3ccc(C#N)cc3)c2)CC1.Cl` the figure was 90 to 105 °C.
The same measure, in the same setting: with `CNC1(COc2cnc(F)c(-c3cccc(C#N)c3)c2)CC1.Cl` the figure was 211 to 215 °C; with `Cl.NCC1(COc2cnc(Cl)c(-c3cccc([N+](=O)[O-])c3)c2)CC1`, 229 to 232 °C; with `CNC1(COc2cnc(Cl)c(-c3ccc(SC)cc3)c2)CC1.Cl.Cl`, 144 to 148 °C.
Take `COc1ccc(-c2cncc(OCC3(CN)CC3)c2)cc1.Cl.Cl`: the melting point fell in the range of 215 to 220 °C.
Consider `CCc1ccc(-c2cc(OCC3(CN)CC3)cnc2Cl)cc1.Cl.Cl`, for which the melting point lay in the range of 112 to 114 °C.
`Cc1ccccc1-c1cc(OCC2(CN)CC2)cnc1Cl.Cl` came in with a melting point of 130 to 132 °C.
Still for that read-out and setting: with `Cc1cccc(-c2cc(OCC3(CN)CC3)cnc2Cl)c1.Cl` the figure was 152 to 154 °C; with `Cl.NCC1(COc2cnc(Cl)c(-c3cccc(Cl)c3)c2)CC1`, 182 to 184 °C.
Regarding `CNC1(COc2cnc(Cl)c(-c3cccc(C#N)c3)c2)CC1.Cl`, the melting point lay within 228 to 232 °C.
Compound `COc1cc(-c2cc(OCC3(CN)CC3)cnc2Cl)cc(OC)c1OC.Cl` yielded a melting point of 138 to 140 °C.
The same measure, in the same setting: as for `Cl.NCC1(COc2cnc(Cl)c(-c3cc(C(F)(F)F)cc(C(F)(F)F)c3)c2)CC1`, the figure is 182 to 188 °C; as for `CNC1(COc2cnc(Cl)c(-c3cc(F)ccc3F)c2)CC1.Cl`, 140 to 142 °C; as for `CNC1(COc2cnc(Cl)c(-c3cc(Cl)ccc3Cl)c2)CC1.Cl`, 140 to 142 °C.
Regarding `CNC1(COc2cnc(Cl)c(-c3cc(Cl)cc(Cl)c3)c2)CC1.Cl`, the melting point was in the range of 186 to 188 °C.
Compound `Cl.NCC1(COc2cnc(Cl)c(-c3c(Cl)cccc3Cl)c2)CC1` displayed a melting point of 182 to 186 °C.
`CNC1(COc2cnc(Cl)c(-c3cccc(NC(C)=O)c3)c2)CC1.Cl` returned a melting point of 220 to 222 °C.
In turn, `Cc1cccc(-c2cncc(OCC3(CN)CC3)c2)c1.Cl.Cl` displayed a melting point of 215 to 218 °C.
Turning to `Cl.Cl.NCC1(COc2cncc(-c3cccc([N+](=O)[O-])c3)c2)CC1`, the melting point is 220 to 225 °C.
Compound `Cl.Cl.NCC1(COc2cncc(-c3cccc(Cl)c3)c2)CC1` returned a melting point of 230 to 235 °C.
Still for that read-out and setting: as for `Cl.Cl.NCC1(COc2cncc(-c3cccc(F)c3)c2)CC1`, the figure is 210 to 214 °C; as for `CCc1ccc(-c2cncc(OCC3(CN)CC3)c2)cc1.Cl.Cl`, 197 to 200 °C; as for `CNC1(COc2cncc(-c3ccccc3C)c2)CC1.Cl.Cl`, 192 to 196 °C.
On the same count and under the same terms, with `Cl.Cl.NCC1(COc2cncc(-c3cc(F)ccc3F)c2)CC1` the figure was 188 to 192 °C; with `CNC1(COc2cncc(-c3cc(OC)c(OC)c(OC)c3)c2)CC1.Cl`, 116 to 120 °C.
Same read-out and setting: as for `Cl.Cl.NCC1(COc2cncc(-c3cc(Cl)ccc3Cl)c2)CC1`, the figure is 195 to 200 °C; as for `CNC1(COc2cncc(-c3cc(C(F)(F)F)cc(C(F)(F)F)c3)c2)CC1.Cl`, 132 to 136 °C.
For `Cl.Cl.Cl.NCC1(COc2cncc(-c3cccc(N)c3)c2)CC1`, the melting point is 185 to 190 °C.
As to `Cl.Cl.NCC1(COc2cnc(F)c(-c3cccc(N)c3)c2)CC1`, the melting point lay in the range of 158 to 161 °C.
For the compound `Cc1ncc(OCC2(CN)CC2)cc1-c1cccc(N)c1.Cl.Cl.Cl`, the melting point is 222 to 228 °C.
`CCOC(=O)c1ccc(-c2cc(OCC3(NC)CC3)cnc2Cl)cc1.Cl.Cl`: the melting point lay in the range of 146 to 148 °C.
Take `COc1ccc(-c2cc(OCC3(N)CC3)cnc2Cl)cc1.Cl.Cl`: the melting point was in the range of 207 to 211 °C.
The same measure, in the same setting: as for `COc1ccc(-c2cc(OCC3(N(C)C)CC3)cnc2Cl)cc1.Cl`, the figure is 208 to 210 °C; as for `CNC1(COc2cnc(Cl)c(-c3ccc(C(N)=O)cc3)c2)CC1.Cl`, 130 °C.
The same measure, in the same setting: as for `Cl.Cl.NCC1(COc2cncc(-c3ccc(Cl)cc3)c2)CC1`, the figure is 208 to 213 °C.
For the compound `CNC1(COc2cnc(F)c(-c3ccc(C(=O)O)cc3)c2)CC1.Cl.Cl`, the melting point fell in the range of 211 to 215 °C.
`Cl.Cl.NCC1(COc2cnc(Cl)c(-c3cccnc3)c2)CC1`: the melting point lay in the range of 210 to 215 °C.
On to `Cl.Cl.NCC1(COc2cnc(Cl)c(-c3ccncc3)c2)CC1`, for which the melting point lay in the range of 125 to 130 °C.
As to `Cl.Cl.NCC1(COc2cnc(Cl)c(-c3ccc(N)cc3)c2)CC1`, the melting point is 240 to 243 °C.
On to `Cl.Cl.NCC1(COc2cnc(F)c(-c3ccc(N)cc3)c2)CC1`, for which the melting point was 225 to 230 °C.
`CNC1(COc2cnc(Cl)c(-c3ccc(O)cc3)c2)CC1.Cl.Cl` returned a melting point of 216 to 220 °C.
On to `CNC1(COc2cnc(Cl)c(-c3ccc(NC(=O)CCl)cc3)c2)CC1.Cl`, for which the melting point fell in the range of 140 to 144 °C.
Still for that read-out and setting: as for `CNC1(COc2cnc(Cl)c(-c3ccc(N=C=S)cc3)c2)CC1.Cl`, the figure is 172 to 176 °C; as for `Cl.Cl.NCC1(COc2cnc(Cl)c(-c3ccccc3)c2)CC1`, 130 to 135 °C.
Regarding `Cl.Cl.NCC1(COc2cnc(-c3ccc(Cl)cc3)c(-c3ccc(Cl)cc3)c2)CC1`, the melting point lay within 220 to 225 °C.
As for `Cl.Cl.NCC1(COc2cnc(-c3ccc([N+](=O)[O-])cc3)c(-c3ccc([N+](=O)[O-])cc3)c2)CC1`, the melting point lay in the range of 215 to 220 °C.
`CNC1(COc2cnc(-c3ccc(C#N)cc3)c(-c3ccc(C#N)cc3)c2)CC1.Cl.Cl` came in with a melting point of 205 to 208 °C.
For `Cc1ncc(OCC2(CN)CC2)cc1-c1ccc(N)cc1.Cl.Cl.Cl`, the melting point lay within 245 to 250 °C.
As to `CNC1(CNc2cncc(-c3cccc(C(=O)O)c3)c2)CC1.Cl.Cl`, the melting point fell in the range of 248 to 250 °C.
